From PubChem BioAssay AID256 (DTP/NCI, 2004)
Toxic doses and inconclusive results are not listed. The calls were made as follows: active = survival T/C of 150% or more; inactive = T/C below 125% in these data.

System: CD2F1 mice, L1210 leukemia ip, survival T/C
Experiment: NCI In Vivo Anticancer Drug Screen. Data for tumor model L1210 Leukemia (intraperitoneal) in CD2F1 (CDF1) mice
Conditions: endpoint: mean survival time, higher = longer survival
Procedure, shortened: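 Read-out first: treated-group measurement over vehicle-control measurement, expressed as a ratio. Animals bore a transplanted tumor line and were dosed with compound or vehicle.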

[1] = dose: 100.0 mg/kg/injection, schedule: Q01DX009 (ip), vehicle: saline with Tween-80
[2] = dose: 200.0 mg/kg/injection, schedule: Q01DX009 (ip), vehicle: saline with Tween-80
[3] = dose: 400.0 mg/kg/injection, schedule: Q01DX009 (ip), vehicle: saline with Tween-80

Measured: T/C

CN(C)c1ccc(C=NCCCN=Cc2ccc(N(C)C)cc2)cc1
inactive: [1] 96 % of control | dose: 100.0 mg/kg/injection, schedule: Q04DX003 (ip), vehicle: saline with Tween-80 95 % of control | [2] 90 % of control | dose: 200.0 mg/kg/injection, schedule: Q04DX003 (ip), vehicle: saline with Tween-80 107 % of control | [3] 93 % of control | dose: 400.0 mg/kg/injection, schedule: Q04DX003 (ip), vehicle: saline with Tween-80 86 % of control

CN1C(=O)NC(c2ccc(Cl)cc2)(c2ccc(Cl)cc2)C1=O
inactive: dose: 12.5 mg/kg/injection, schedule: Q01DX009 (ip), vehicle: distilled water + Tween-80 93 % of control | dose: 12.5 mg/kg/injection, schedule: Q01DX009 (ip), vehicle: saline with Tween-80 97 % of control | dose: 25.0 mg/kg/injection, schedule: Q01DX009 (ip), vehicle: distilled water + Tween-80 95 % of control | dose: 25.0 mg/kg/injection, schedule: Q01DX009 (ip), vehicle: saline with Tween-80 101 % of control | dose: 50.0 mg/kg/injection, schedule: Q01DX009 (ip), vehicle: distilled water + Tween-80 103 % of control | dose: 50.0 mg/kg/injection, schedule: Q01DX009 (ip), vehicle: saline with Tween-80 101 % of control | dose: 100.0 mg/kg/injection, schedule: Q01DX009 (ip), vehicle: distilled water + Tween-80 98 % of control | [1] 89 % of control | dose: 200.0 mg/kg/injection, schedule: Q01DX009 (ip), vehicle: distilled water + Tween-80 98 % of control | [2] 91 % of control

COC(=O)c1ccccc1SSc1ccccc1C(=O)OC
inactive: [1] 93 % of control | [2] 98 % of control | [3] 93 % of control
